Reference: PMC7818921, “Synthesis and biological evaluation of heterocyclic 1,2,4-triazole scaffolds as promising pharmacological agents” (BMC Chemistry, 2021)
≈ marks a conversion by molar mass, not a printed value.

Experiments:
[1] = DPPH free radical scavenging activity; settings: for IC50: DPPH antioxidant; for % inhibition: DPPH
Procedure: In the DPPH free radical scavenging activity, compounds (T1–T20) were evaluated for their free radical scavenging activity with ascorbic acid as standard compound. The scavenging effect increased with the increasing concentrations of sample compounds. DPPH is relatively stable nitrogen centered free radical that easily accepts an electron or hydrogen radical to become a stable diamagnetic molecule. DPPH radicals react with suitable reducing agents as a result of which the electrons become paired off forming the corresponding hydrazine. The solution therefore loses colour stoichometrically depending on the number of electrons taken up. […] The sample solutions were incubated for 30 min at room temperature in dark place and after then absorbance was recorded against the blank solution at 517 nm. The relative percent of DPPH scavenging activity was calculated according to the following equation: I%=Acontrol-Asample/Acontrol×100,
where Acontrol is the absorbance of the control, Asample is the absorbance of the test compound.

Candida albicans = test: In vitro antifungal screening, tube dilution method; type: cell-based; settings: Candida albicans; C. albican; Sabouraud dextrose broth, 37 ± 1 °C, 48 h; read-out: Minimum inhibitory concentration
Procedure: (§1) The in vitro antimicrobial screening of the synthesized 1,2,4-triazole derivatives (T1–T20) in μM was determined against Gram-positive Bacillus subtilis, […], Gram-negative Escherichia coli bacterium and fungal strains Candida albicans and Aspergillus niger by tube dilution method using ciprofloxacin, amoxycillin (antibacterial) and fluconazole (antifungal) as reference drugs. DMSO was used to dissolve the reference and sample derivatives (T1–T20). Dilutions were prepared in nutrient broth (I.P.) for bacterial (incubated at 37 ± 1 °C for 24 h) and Sabouraud dextrose broth (I.P.) for fungal species (37 ± 1 °C for 48 h for C. albicans) and (25 ± 1 °C for 7 days for A. niger) (Table 3, Figs. 4 and 5).

Aspergillus niger = test: as above; type: cell-based; settings: Aspergillus niger, 168 h; A. niger; Sabouraud dextrose broth, 25 ± 1 °C, 7 days; read-out: Minimum inhibitory concentration
Procedure: as §1

Jack Bean Urease = Jack Bean Urease (Canavalia ensiformis, UniProt P07374); test: biochemical
Sequence of Jack Bean Urease (P07374 whole entry, looked up): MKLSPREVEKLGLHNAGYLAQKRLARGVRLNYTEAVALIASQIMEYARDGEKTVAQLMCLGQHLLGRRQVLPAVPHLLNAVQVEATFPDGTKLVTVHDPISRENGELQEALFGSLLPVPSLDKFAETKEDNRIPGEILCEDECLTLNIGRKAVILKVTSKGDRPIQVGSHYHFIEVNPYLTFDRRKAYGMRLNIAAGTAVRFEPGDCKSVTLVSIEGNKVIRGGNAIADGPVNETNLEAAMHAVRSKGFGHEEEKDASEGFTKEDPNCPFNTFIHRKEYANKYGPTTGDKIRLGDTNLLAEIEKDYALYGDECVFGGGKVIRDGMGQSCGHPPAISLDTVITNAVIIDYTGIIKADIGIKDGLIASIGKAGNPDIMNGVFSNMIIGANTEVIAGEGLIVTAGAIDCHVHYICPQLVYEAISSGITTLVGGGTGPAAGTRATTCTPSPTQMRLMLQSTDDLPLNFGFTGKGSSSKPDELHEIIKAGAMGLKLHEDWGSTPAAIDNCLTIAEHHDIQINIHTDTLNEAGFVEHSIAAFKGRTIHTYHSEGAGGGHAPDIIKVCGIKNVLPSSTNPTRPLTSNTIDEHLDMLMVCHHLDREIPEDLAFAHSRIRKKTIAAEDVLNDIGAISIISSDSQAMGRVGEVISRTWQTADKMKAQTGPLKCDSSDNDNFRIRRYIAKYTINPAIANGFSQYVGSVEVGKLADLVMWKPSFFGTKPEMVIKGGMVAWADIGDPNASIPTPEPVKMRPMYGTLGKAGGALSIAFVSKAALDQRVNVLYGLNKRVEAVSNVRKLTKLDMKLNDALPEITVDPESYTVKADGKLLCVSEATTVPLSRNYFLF
Procedure: Urease inhibitory potential for each synthesisized compound (T1–T20) was evaluated using Jack Bean Urease by Indophenol method (Table 5, Figs. 9, 10, 11). 250 µl of jack bean urease (4U) was mixed with 250 µl of different synthesized test compounds and standard of different concentrations [dissolved in DMSO/H2O mixture (1:1 v/v)]. The mixture was pre-incubated for 1 h at 37 °C in test tubes. 2 ml of 100 mM phosphate buffer (pH 6.8) containing 500 mM urea and 0.002% phenol red as an indicator were added in sample test tubes after pre incubation and again incubated at room temperature. Absorbance of reaction mixture was recorded by ELISA at 570 nm. Ammonium carbonate increased the pH of phosphate buffer from 6.8 to 7.7 which was produced from urea by urease enzyme and the end peak was measured by the colour of phenol red indicator [16].
The percentage inhibition of urease enzyme was calculated by using following formula: I%=Acontrol-Asample/Acontrol×100,
where Acontrol is the absorbance of the control; Asample is the absorbance of the test compound.

[2] = test system: HCT116 (human colon cancer cells); test: Anticancer evaluation, SRB assay; type: cell-based; settings: Homo sapiens, HCT-116
Procedure: HCT116 (human colon cancer cells) were seeded at 2500 cells/well (96 well plate), allowed to attach overnight, exposed to the respective compounds for 72 h and subjected to SRB assay (570 nm). Data represent mean IC50 of at least triplicates. The compounds were all dissolved in DMSO as stock of 100 mg/ml. […] The highest concentration of each compound tested (100 μg/ml) contained only 0.1% DMSO.

Bacillus subtilis = test: In vitro antimicrobial screening, tube dilution method; type: cell-based; settings: Bacillus subtilis; B. substilis, Gram +ve; nutrient broth, 37 ± 1 °C, 24 h; read-out: Minimum inhibitory concentration
Procedure: as §1

Escherichia coli = test: as above; type: cell-based; settings: Escherichia coli; E. coli, Gram −ve; nutrient broth, 37 ± 1 °C, 24 h; read-out: Minimum inhibitory concentration
Procedure: as §1

Pseudomonas aeruginosa = test: as above; type: cell-based; settings: Pseudomonas aeruginosa; P. aeruginosa, Gram −ve; nutrient broth, 37 ± 1 °C, 24 h; read-out: Minimum inhibitory concentration
Procedure: as §1

[3] = HCT116, 72 h, SRB, mean of at least triplicates

Structure (SMILES)	IC50 [1]	% inhibition ([1]; 25 µg/ml)	% inhibition ([1]; 50 µg/ml)	% inhibition ([1]; 75 µg/ml)	% inhibition ([1]; 100 µg/ml)	MIC (Candida albicans)	MIC (Aspergillus niger)	melting point	IC50 (Jack Bean Urease)	inhibition at 25 µg/mL (Jack Bean Urease)	inhibition at 50 µg/mL (Jack Bean Urease)	inhibition at 75 µg/mL (Jack Bean Urease)	inhibition at 100 µg/mL (Jack Bean Urease)	IC50 [2, 3]	MIC (Bacillus subtilis)	MIC (Escherichia coli)	MIC (Pseudomonas aeruginosa)	IC50 ([2]; HCT116, value given in dose-response figure)
CCCCCCCCCCCCCCCc1nnc(S)n1N=Cc1ccccc1 [Compound T1]	46.83 µg/mL (≈ 113 µM)	25.45%	49.65%	69.67%	94.78%	241 µM (≈ 100 µg/mL)	120 µM (≈ 50 µg/mL)	184 to 187 °C	125 µM	25.8%	48%	72.9%	92%	> 241 µM	120 µM (≈ 50 µg/mL)	241 µM (≈ 100 µg/mL)	241 µM (≈ 100 µg/mL)	–
CCCCCCCCCCCCCCCc1nnc(S)n1N=Cc1cccc(Br)c1 [Compound T13]	36.40 µg/mL (≈ 73.8 µM)	43.46%	57.67%	73.76%	89.56%	101 µM (≈ 50 µg/mL)	203 µM (≈ 100 µg/mL)	197 to 200 °C	101 µM	26.6%	48.8%	74%	98.9%	> 203 µM	101 µM (≈ 50 µg/mL)	203 µM (≈ 100 µg/mL)	203 µM (≈ 100 µg/mL)	–
CCCCCCCCCCCCCCCc1nnc(S)n1N=Cc1ccc(C=O)cc1 [Compound T2]	34.83 µg/mL (≈ 78.7 µM)	45.67%	56.98%	70.16%	84.21%	226 µM (≈ 100 µg/mL)	226 µM (≈ 100 µg/mL)	182 to 185 °C	120 µM	40.5%	49.5%	55.7%	67.6%	3.84 µM	56.4 µM (≈ 25 µg/mL)	113 µM (≈ 50 µg/mL)	56.4 µM (≈ 25 µg/mL)	1.7 µg/mL
CCCCCCCCCCCCCCCc1nnc(S)n1N=Cc1ccc([N+](=O)[O-])cc1 [Compound T17]	–	48.75%	62.57%	78.16%	84.61%	109 µM (≈ 50 µg/mL)	27.1 µM (≈ 12.5 µg/mL)	206 to 209 °C	125 µM	37.9%	42.4%	57.6%	71.4%	> 218 µM	54.3 µM (≈ 25 µg/mL)	218 µM (≈ 100 µg/mL)	218 µM (≈ 100 µg/mL)	–
CCCCCCCCCCCCCCCc1nnc(S)n1N=Cc1ccc(OC)c(OC)c1 [Compound T4]	37.50 µg/mL (≈ 79 µM)	38.45%	58.34%	88.61%	98.89%	52.6 µM (≈ 25 µg/mL)	105 µM (≈ 50 µg/mL)	188 to 191 °C	106 µM	35.5%	49.5%	63.7%	79.5%	7.79 µM	52.6 µM (≈ 25 µg/mL)	105 µM (≈ 50 µg/mL)	52.6 µM (≈ 25 µg/mL)	–
CCCCCCCCCCCCCCCc1nnc(S)n1N=Cc1ccccc1[N+](=O)[O-] [Compound T15]	47.99 µg/mL (≈ 104 µM)	38.56%	50.64%	62.16%	80.56%	218 µM (≈ 100 µg/mL)	54.3 µM (≈ 25 µg/mL)	195 to 198 °C	133 µM	29%	37.1%	61.8%	73.1%	> 218 µM	54.3 µM (≈ 25 µg/mL)	218 µM (≈ 100 µg/mL)	109 µM (≈ 50 µg/mL)	–
CCCCCCCCCCCCCCCc1nnc(S)n1N=Cc1ccc(Br)cc1 [Compound T14]	37.52 µg/mL (≈ 76 µM)	37.56%	60.68%	85.79%	95.61%	203 µM (≈ 100 µg/mL)	101 µM (≈ 50 µg/mL)	193 to 196 °C	136 µM	41.7%	46.2%	50.5%	57.8%	128 µM	50.6 µM (≈ 25 µg/mL)	101 µM (≈ 50 µg/mL)	101 µM (≈ 50 µg/mL)	–
CCCCCCCCCCCCCCCc1nnc(S)n1N=Cc1ccc(N(C)C)cc1 [Compound T9]	35.42 µg/mL (≈ 77.4 µM)	40.56%	60.67%	83.61%	92.16%	109 µM (≈ 50 µg/mL)	218 µM (≈ 100 µg/mL)	198 to 201 °C	–	33.5%	53.7%	70.5%	92.7%	> 218 µM	54.6 µM (≈ 25 µg/mL)	54.6 µM (≈ 25 µg/mL)	27.3 µM (≈ 12.5 µg/mL)	–
